According to US20240116985A1, “STAPLED PEPTIDES AND METHODS THEREOF” (priority 2020, published 2024):
In brackets after ≈: the same amount, converted by molar mass. Where two headings read alike, the source gives them in different places.

Legend:
[1] = target: T1, full-length beta-Catenin (Uniprot ID P35222) (Homo sapiens, UniProt P35222); experiment: Fluorescence polarization IC50 (beta-catenin / 5FAM-TCF4 10-53 competition); type: binding
T1 construct: 10 nM full-length beta-Catenin (Uniprot ID P35222)
T1 sequence (P35222 1-781): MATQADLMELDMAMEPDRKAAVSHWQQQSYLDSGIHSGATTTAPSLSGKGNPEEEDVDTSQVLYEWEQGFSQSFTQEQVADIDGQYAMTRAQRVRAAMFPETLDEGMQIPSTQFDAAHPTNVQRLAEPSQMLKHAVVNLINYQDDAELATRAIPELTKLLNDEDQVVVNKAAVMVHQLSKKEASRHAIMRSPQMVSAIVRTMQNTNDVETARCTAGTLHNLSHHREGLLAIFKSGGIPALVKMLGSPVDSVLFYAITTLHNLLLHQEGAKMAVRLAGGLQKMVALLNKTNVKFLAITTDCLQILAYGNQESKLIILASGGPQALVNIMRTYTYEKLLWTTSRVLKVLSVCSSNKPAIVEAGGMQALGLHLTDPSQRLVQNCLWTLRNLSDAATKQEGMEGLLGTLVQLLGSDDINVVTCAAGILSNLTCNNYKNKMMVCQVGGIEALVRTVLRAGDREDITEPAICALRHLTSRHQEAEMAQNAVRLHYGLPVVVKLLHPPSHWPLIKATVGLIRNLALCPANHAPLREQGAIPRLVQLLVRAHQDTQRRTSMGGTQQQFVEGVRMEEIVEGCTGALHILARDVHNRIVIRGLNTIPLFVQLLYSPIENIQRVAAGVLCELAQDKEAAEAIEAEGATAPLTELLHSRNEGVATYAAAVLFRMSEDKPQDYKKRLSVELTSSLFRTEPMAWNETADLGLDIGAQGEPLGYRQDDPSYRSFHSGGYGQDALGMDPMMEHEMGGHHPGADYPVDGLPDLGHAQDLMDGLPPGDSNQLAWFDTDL

[2] = CHI Log D procedure; type: physicochemical; conditions: for CHI Log D: pH 7.4; for chromatographic logD: pH 7.4, CHI Log D
[3] = Solubility in PBS; type: physicochemical
Summary of the method: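 The PBS solution was ultracentrifuged and the supernatant analyzed by HPLC. Its peak area was divided by that of a 50 μM peptide DMSO reference injection and multiplied by 50 uM to give solubility.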

[4] = fluorescence polarization, read-out: beta-Catenin FP IC50

SMILES | IC50 [1, 4] [nM] | IC50 ([1]; read-out: FP EC50) [nM] | CHI Log D [2] | Solubility [3] [µM] | chromatographic logD [2]
CC[C@H](C)[C@@H]1NC(=O)[C@H](CC(=O)O)NC(=O)[C@]2(CC=CCCCC3(CCCC=CCCCCCC[C@@](C)(C(=O)N[C@@H](Cc4ccccc4)C(=O)N[C@@H](Cc4csc5ccccc45)C(=O)N[C@@H](CCC(N)=O)C(N)=O)NC(=O)[C@H](CCC(N)=O)NC(=O)[C@H](Cc4ccccc4)NC(=O)[C@H](C)NC(=O)[C@H](C)NC(=O)[C@H](CCCNC(=N)N)NC(=O)[C@H](CC(=O)O)NC3=O)NC1=O)CCCN2C(C)=O (stereo partly drawn) [I-613, Ac-PL3-Asp-Ile-B5-Asp-Arg-Ala-Ala-Phe-Gln-S8-Phe-BztA-Gln-NH2] | 1630 | 1630 | 2.781 | 10 (≈ 19.1 µg/mL) | 
CC[C@H](C)[C@@H]1NC(=O)[C@H](CC(=O)O)NC(=O)[C@]2(CC=CCCCC3(CCCC=CCCCCCC[C@@](C)(C(=O)N[C@@H](Cc4ccccc4)C(=O)N[C@@H](Cc4csc5ccccc45)C(=O)N[C@@H](CCC(N)=O)C(N)=O)NC(=O)[C@H](CCC(N)=O)NC(=O)[C@H](Cc4ccccc4)NC(=O)[C@H](C)NC(=O)[C@H](C)NC(=O)[C@H](CCCNC(=N)N)NC(=O)[C@H](CC(=O)O)NC3=O)NC1=O)CCCN2C(C)=O (stereo partly drawn) [I-614, Ac-PL3-Asp-Ile-B5-Asp-Arg-Ala-Ala-Phe-Gln-S8-Phe-BztA-Gln-NH2] | 1140 | 1140 | 2.801 | 10 (≈ 19.1 µg/mL) | 
CC(=O)N1CCC[C@]12CC=CCCCC1(CCCC=CCCCCCC[C@@](C)(C(=O)N[C@@H](Cc3ccccc3)C(=O)N[C@@H](Cc3csc4ccccc34)C(=O)N[C@@H](Cc3c[nH]cn3)C(N)=O)NC(=O)[C@H](CC(N)=O)NC(=O)[C@H](Cc3ccccc3)NC(=O)[C@H](C)NC(=O)[C@H](C)NC(=O)[C@H](CCC(=O)O)NC(=O)[C@H](CC(=O)O)NC1=O)NC(=O)[C@H](CC1CCCCC1)NC(=O)[C@H](CC(=O)O)NC2=O (stereo partly drawn) [I-615, Ac-PL3-Asp-Cha-B5-Asp-Glu-Ala-Ala-Phe-Asn-S8-Phe-BztA-His-NH2] | 50 |  |  | 10 (≈ 19.2 µg/mL) | 2.83
CC(=O)N1CCC[C@]12CC=CCCCC1(CCCC=CCCCCCC[C@@](C)(C(=O)N[C@@H](Cc3ccccc3)C(=O)N[C@@H](Cc3csc4ccccc34)C(=O)N[C@@H](Cc3c[nH]cn3)C(N)=O)NC(=O)[C@H](CCCNC(N)=O)NC(=O)[C@H](Cc3ccccc3)NC(=O)[C@H](C)NC(=O)[C@H](C)NC(=O)[C@H](CCC(=O)O)NC(=O)[C@H](CC(=O)O)NC1=O)NC(=O)[C@H](CC(C)C)NC(=O)[C@H](CC(=O)O)NC2=O (stereo partly drawn) [I-616, Ac-PL3-Asp-Leu-B5-Asp-Glu-Ala-Ala-Phe-Cit-S8-Phe-BztA-His-NH2] | 108 |  |  | 10 (≈ 19.2 µg/mL) | 2.41
CC(=O)N1CCC[C@]12CC=CCCCC1(CCCC=CCCCCCC[C@@](C)(C(=O)N[C@@H](Cc3ccccc3)C(=O)N[C@@H](Cc3csc4ccccc34)C(=O)N[C@@H](CCC(N)=O)C(N)=O)NC(=O)[C@H](CC(N)=O)NC(=O)[C@H](Cc3ccccc3)NC(=O)[C@H](C)NC(=O)[C@H](C)NC(=O)[C@H](CCC(=O)O)NC(=O)[C@H](CC(=O)O)NC1=O)NC(=O)[C@H](CC1CCCCC1)NC(=O)[C@H](CC(=O)O)NC2=O (stereo partly drawn) [I-619, Ac-PL3-Asp-Cha-B5-Asp-Glu-Ala-Ala-Phe-Asn-S8-Phe-BztA-Gln-NH2] | 44 | 44 | 2.677 | 47 (≈ 89.7 µg/mL) | 
CC(=O)N1CCC[C@]12CC=CCCCC1(CCCC=CCCCCCC[C@@](C)(C(=O)N[C@@H](Cc3ccccc3)C(=O)N[C@@H](Cc3csc4ccccc34)C(N)=O)NC(=O)[C@H](CC(N)=O)NC(=O)[C@H](Cc3ccccc3)NC(=O)[C@H](C)NC(=O)[C@H](C)NC(=O)[C@H](CCC(=O)O)NC(=O)[C@H](CC(=O)O)NC1=O)NC(=O)[C@H](CC(C)C)NC(=O)[C@H](CC(=O)O)NC2=O (stereo partly drawn) [I-624, Ac-PL3-Asp-Leu-B5-Asp-Glu-Ala-Ala-Phe-Asn-S8-Phe-BztA-NH2] | 273 | 273 | 2.598 | 27 (≈ 47 µg/mL) | 
CC(=O)N1CCC[C@]12CC=CCCCC1(CCCC=CCCCCCC[C@@](C)(C(=O)N[C@@H](Cc3ccccc3)C(=O)N[C@@H](Cc3csc4ccccc34)C(N)=O)NC(=O)[C@H](CC(N)=O)NC(=O)[C@H](Cc3ccccc3)NC(=O)[C@H](C)NC(=O)[C@H](C)NC(=O)[C@H](CCC(=O)O)NC(=O)[C@H](CC(=O)O)NC1=O)NC(=O)[C@H](CC(C)C)NC(=O)[C@H](CC(=O)O)NC2=O (stereo partly drawn) [I-625, Ac-PL3-Asp-Leu-B5-Asp-Glu-Ala-Ala-Phe-Asn-S8-Phe-BztA-NH2] | 119 | 119 | 2.681 | 47 (≈ 81.8 µg/mL) | 
CC(=O)N1CCC[C@]12CC=CCCCC1(CCCC=CCCCCCC[C@@](C)(C(=O)N[C@@H](Cc3ccccc3)C(=O)N[C@@H](Cc3csc4ccccc34)C(N)=O)NC(=O)[C@H](CC(N)=O)NC(=O)[C@H](Cc3ccccc3)NC(=O)[C@H](C)NC(=O)[C@H](C)NC(=O)[C@H](CCC(=O)O)NC(=O)[C@H](CC(=O)O)NC1=O)NC(=O)[C@H](CC1CCCCC1)NC(=O)[C@H](CC(=O)O)NC2=O (stereo partly drawn) [I-627, Ac-PL3-Asp-Cha-B5-Asp-Glu-Ala-Ala-Phe-Asn-S8-Phe-BztA-NH2] | 338 | 338 | 3.002 | 47 (≈ 83.7 µg/mL) | 

The remaining lines, values ahead:

IC50 [1, 4] [nM] | IC50 ([1]; read-out: FP EC50) [nM] | CHI Log D [2] | Solubility [3] [µM] | chromatographic logD [2] | SMILES
253 | 253 | 2.549 | 10 (≈ 18.7 µg/mL) |  | CC(=O)N1CCC[C@]12CC=CCCCC1(CCCC=CCCCCCC[C@@](C)(C(=O)N[C@@H](Cc3ccccc3)C(=O)N[C@@H](Cc3csc4ccccc34)C(=O)N[C@@H](Cc3c[nH]cn3)C(N)=O)NC(=O)[C@H]([C@@H](C)O)NC(=O)[C@H](Cc3ccccc3)NC(=O)[C@H](C)NC(=O)[C@H](C)NC(=O)[C@H](CCC(=O)O)NC(=O)[C@H](CC(=O)O)NC1=O)NC(=O)[C@H](CC(C)C)NC(=O)[C@H](CC(=O)O)NC2=O (stereo partly drawn) [I-617, Ac-PL3-Asp-Leu-B5-Asp-Glu-Ala-Ala-Phe-Thr-S8-Phe-BztA-His-NH2]
135 | 135 | 2.617 | 10 (≈ 18.7 µg/mL) |  | CC(=O)N1CCC[C@]12CC=CCCCC1(CCCC=CCCCCCC[C@@](C)(C(=O)N[C@@H](Cc3ccccc3)C(=O)N[C@@H](Cc3csc4ccccc34)C(=O)N[C@@H](Cc3c[nH]cn3)C(N)=O)NC(=O)[C@H]([C@@H](C)O)NC(=O)[C@H](Cc3ccccc3)NC(=O)[C@H](C)NC(=O)[C@H](C)NC(=O)[C@H](CCC(=O)O)NC(=O)[C@H](CC(=O)O)NC1=O)NC(=O)[C@H](CC(C)C)NC(=O)[C@H](CC(=O)O)NC2=O (stereo partly drawn) [I-618, Ac-PL3-Asp-Leu-B5-Asp-Glu-Ala-Ala-Phe-Thr-S8-Phe-BztA-His-NH2]
58 |  |  | 50 (≈ 95.6 µg/mL) | 2.34 | CC(=O)N1CCC[C@]12CC=CCCCC1(CCCC=CCCCCCC[C@@](C)(C(=O)N[C@@H](Cc3ccccc3)C(=O)N[C@@H](Cc3csc4ccccc34)C(=O)N[C@@H](CCC(N)=O)C(N)=O)NC(=O)[C@H](CCCNC(N)=O)NC(=O)[C@H](Cc3ccccc3)NC(=O)[C@H](C)NC(=O)[C@H](C)NC(=O)[C@H](CCC(=O)O)NC(=O)[C@H](CC(=O)O)NC1=O)NC(=O)[C@H](CC(C)C)NC(=O)[C@H](CC(=O)O)NC2=O (stereo partly drawn) [I-621, Ac-PL3-Asp-Leu-B5-Asp-Glu-Ala-Ala-Phe-Cit-S8-Phe-BztA-Gln-NH2]
230 | 230 | 2.453 | 45 (≈ 83.5 µg/mL) |  | CC(=O)N1CCC[C@]12CC=CCCCC1(CCCC=CCCCCCC[C@@](C)(C(=O)N[C@@H](Cc3ccccc3)C(=O)N[C@@H](Cc3csc4ccccc34)C(=O)N[C@@H](CCC(N)=O)C(N)=O)NC(=O)[C@H]([C@@H](C)O)NC(=O)[C@H](Cc3ccccc3)NC(=O)[C@H](C)NC(=O)[C@H](C)NC(=O)[C@H](CCC(=O)O)NC(=O)[C@H](CC(=O)O)NC1=O)NC(=O)[C@H](CC(C)C)NC(=O)[C@H](CC(=O)O)NC2=O (stereo partly drawn) [I-622, Ac-PL3-Asp-Leu-B5-Asp-Glu-Ala-Ala-Phe-Thr-S8-Phe-BztA-Gln-NH2]
103 | 103 | 2.494 | 44 (≈ 81.7 µg/mL) |  | CC(=O)N1CCC[C@]12CC=CCCCC1(CCCC=CCCCCCC[C@@](C)(C(=O)N[C@@H](Cc3ccccc3)C(=O)N[C@@H](Cc3csc4ccccc34)C(=O)N[C@@H](CCC(N)=O)C(N)=O)NC(=O)[C@H]([C@@H](C)O)NC(=O)[C@H](Cc3ccccc3)NC(=O)[C@H](C)NC(=O)[C@H](C)NC(=O)[C@H](CCC(=O)O)NC(=O)[C@H](CC(=O)O)NC1=O)NC(=O)[C@H](CC(C)C)NC(=O)[C@H](CC(=O)O)NC2=O (stereo partly drawn) [I-623, Ac-PL3-Asp-Leu-B5-Asp-Glu-Ala-Ala-Phe-Thr-S8-Phe-BztA-Gln-NH2]
